# According to patent publication US10947271B2, “Antibacterial agents” (THE UNIVERSITY OF QUEENSLAND, priority 2014, dated 2021):
# Columns and labels:
# Format in all cases: cell-based
# Details in all cases: 24 h incubation, visual reading
# [1] = system: Enterococcus faecium MDR Van A ATCC 51559; assay: MIC assay, E. faecium MDR Van A ATCC 51559
# Method in brief: (§1)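 Overnight MHB cultures at 37° C were diluted 40-fold and grown 2-3 hrs to mid-log, then added at 5×10e5 CFU/mL to twofold compound dilutions (8 to 0.003 μg/ml). Plates were incubated 24 h at 37° C and MIC scored by eye.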
# [2] = system: Staphylococcus aureus MRSA ATCC 43300; assay: MIC assay, S. aureus MRSA ATCC 43300
# Method in brief: as §1
# [3] = system: Streptococcus pneumoniae MDR ATCC 700677; assay: MIC assay, S. pneumoniae MDR ATCC 700677
# Method in brief: as §1
smiles,measurement,setting,value
CNC(=O)C(CCCCNC(=O)C1NC(=O)C2NC(=O)C(NC(=O)C3NC(=O)C(CC(N)=O)NC(=O)C(NC(=O)C(CC(C)C)NC)C(O)c4ccc(c(Cl)c4)Oc4cc3cc(c4OC3OC(CO)C(O)C(O)C3OC3CC(C)(N)C(O)C(C)O3)Oc3ccc(cc3Cl)C2O)c2ccc(O)c(c2)-c2c(O)cc(O)cc21)NC(=O)C(CCCCN)NC(=O)C(CCCCN)NC(=O)c1ccc(OCc2ccccc2)cc1 (stereo not drawn) [MCC_000518],Minimum Inhibitory Concentration (MIC) E. faecium ATCC51559,[1],x (x = >4)
same,Minimum Inhibitory Concentration (MIC) Staph. aureus ATCC43300,[2],xxx (xxx = 0.1-<1)
same,Minimum Inhibitory Concentration (MIC) S. pneumoniae ATCC 700677,[3],xxx (xxx = 0.1-<1)
CCCCCCCCCN1CCC(C(=O)N[C@@H](CCCCN)C(=O)N[C@@H](CCCCN)C(=O)NCCCNC(=O)[C@H]2NC(=O)[C@H]3NC(=O)[C@H](NC(=O)[C@@H]4NC(=O)[C@H](CC(N)=O)NC(=O)[C@H](NC(=O)[C@@H](CC(C)C)NC)[C@H](O)c5ccc(c(Cl)c5)Oc5cc4cc(c5O[C@@H]4O[C@H](CO)[C@@H](O)[C@H](O)[C@H]4O[C@H]4C[C@](C)(N)[C@H](O)[C@H](C)O4)Oc4ccc(cc4Cl)[C@H]3O)c3ccc(O)c(c3)-c3c(O)cc(O)cc32)CC1 [MCC_000937],Minimum Inhibitory Concentration (MIC) E. faecium ATCC51559,[1],xx (xx = 1-4)
same,Minimum Inhibitory Concentration (MIC) Staph. aureus ATCC43300,[2],xxxx (xxxx = 0.01-<0.1)
same,Minimum Inhibitory Concentration (MIC) S. pneumoniae ATCC 700677,[3],xxxx (xxxx = 0.01-<0.1)
CCCCCCCCCC(=O)N[C@@H](CCCCN1CCOCC1)C(=O)N[C@@H](CCCCNC(=O)[C@H]1NC(=O)[C@H]2NC(=O)[C@H](NC(=O)[C@@H]3NC(=O)[C@H](CC(N)=O)NC(=O)[C@H](NC(=O)[C@@H](CC(C)C)NC)[C@H](O)c4ccc(c(Cl)c4)Oc4cc3cc(c4O[C@@H]3O[C@H](CO)[C@@H](O)[C@H](O)[C@H]3O[C@H]3C[C@](C)(N)[C@H](O)[C@H](C)O3)Oc3ccc(cc3Cl)[C@H]2O)c2ccc(O)c(c2)-c2c(O)cc(O)cc21)C(=O)O [MCC_007379],Minimum Inhibitory Concentration (MIC) E. faecium ATCC51559,[1],x (x = >4)
same,Minimum Inhibitory Concentration (MIC) Staph. aureus ATCC43300,[2],xx (xx = 1-4)
same,Minimum Inhibitory Concentration (MIC) S. pneumoniae ATCC 700677,[3],xx (xx = 1-4)
CNC(=O)C(CCCCNC(=O)C1NC(=O)C2NC(=O)C(NC(=O)C3NC(=O)C(CC(N)=O)NC(=O)C(NC(=O)C(CC(C)C)NC)C(O)c4ccc(c(Cl)c4)Oc4cc3cc(c4OC3OC(CO)C(O)C(O)C3OC3CC(C)(N)C(O)C(C)O3)Oc3ccc(cc3Cl)C2O)c2ccc(O)c(c2)-c2c(O)cc(O)cc21)NC(=O)C(CCCCN)NC(=O)C(CCCCN)NC(=O)CCCCCCCCCc1ccccc1 (stereo not drawn) [MCC_000510],Minimum Inhibitory Concentration (MIC) E. faecium ATCC51559,[1],xx (xx = 1-4)
same,Minimum Inhibitory Concentration (MIC) Staph. aureus ATCC43300,[2],xxxx (xxxx = 0.01-<0.1)
same,Minimum Inhibitory Concentration (MIC) S. pneumoniae ATCC 700677,[3],xxxxxx
CCCCCCCCCCCCCCC(=O)NC(CCCCN)C(=O)NC(CCCCN)C(=O)NC(CCCCNC(=O)C1NC(=O)C2NC(=O)C(NC(=O)C3NC(=O)C(CC(N)=O)NC(=O)C(NC(=O)C(CC(C)C)NC)C(O)c4ccc(c(Cl)c4)Oc4cc3cc(c4OC3OC(CO)C(O)C(O)C3OC3CC(C)(N)C(O)C(C)O3)Oc3ccc(cc3Cl)C2O)c2ccc(O)c(c2)-c2c(O)cc(O)cc21)C(=O)NC (stereo not drawn) [MCC_000495],Minimum Inhibitory Concentration (MIC) E. faecium ATCC51559,[1],xxx (xxx = 0.1-<1)
same,Minimum Inhibitory Concentration (MIC) Staph. aureus ATCC43300,[2],xxxx (xxxx = 0.01-<0.1)
same,Minimum Inhibitory Concentration (MIC) S. pneumoniae ATCC 700677,[3],xxxxx (xxxxx = <0.01)
CCCCCCCCCC(=O)N[C@@H](CCCNC(=N)N)C(=O)N[C@@H](CCCNC(=N)N)C(=O)NCCCNC(=O)[C@H]1NC(=O)[C@H]2NC(=O)[C@H](NC(=O)[C@@H]3NC(=O)[C@H](CC(N)=O)NC(=O)[C@H](NC(=O)[C@@H](CC(C)C)NC)[C@H](O)c4ccc(c(Cl)c4)Oc4cc3cc(c4O[C@@H]3O[C@H](CO)[C@@H](O)[C@H](O)[C@H]3O[C@H]3C[C@](C)(N)[C@H](O)[C@H](C)O3)Oc3ccc(cc3Cl)[C@H]2O)c2ccc(O)c(c2)-c2c(O)cc(O)cc21 [MCC_005482],Minimum Inhibitory Concentration (MIC) E. faecium ATCC51559,[1],xx (xx = 1-4)
same,Minimum Inhibitory Concentration (MIC) Staph. aureus ATCC43300,[2],xxxxx (xxxxx = <0.01)
same,Minimum Inhibitory Concentration (MIC) S. pneumoniae ATCC 700677,[3],xxxxx (xxxxx = <0.01)
CCCCCCCC(=O)N[C@@H](CCCCN)C(=O)NCCNC(=O)[C@H]1NC(=O)[C@H]2NC(=O)[C@H](NC(=O)[C@@H]3NC(=O)[C@H](CC(N)=O)NC(=O)[C@H](NC(=O)[C@@H](CC(C)C)NC)[C@H](O)c4ccc(c(Cl)c4)Oc4cc3cc(c4O[C@@H]3O[C@H](CO)[C@@H](O)[C@H](O)[C@H]3O[C@H]3C[C@](C)(N)[C@H](O)[C@H](C)O3)Oc3ccc(cc3Cl)[C@H]2O)c2ccc(O)c(c2)-c2c(O)cc(O)cc21 [MCC_005183],Minimum Inhibitory Concentration (MIC) E. faecium ATCC51559,[1],x (x = >4)
same,Minimum Inhibitory Concentration (MIC) Staph. aureus ATCC43300,[2],xxx (xxx = 0.1-<1)
same,Minimum Inhibitory Concentration (MIC) S. pneumoniae ATCC 700677,[3],xxx (xxx = 0.1-<1)
CCCCCCCNc1ccc(C(=O)N[C@@H](CCCCN)C(=O)N[C@@H](CCCCN)C(=O)N[C@@H](CCCCNC(=O)[C@H]2NC(=O)[C@H]3NC(=O)[C@H](NC(=O)[C@@H]4NC(=O)[C@H](CC(N)=O)NC(=O)[C@H](NC(=O)[C@@H](CC(C)C)NC)[C@H](O)c5ccc(c(Cl)c5)Oc5cc4cc(c5O[C@@H]4O[C@H](CO)[C@@H](O)[C@H](O)[C@H]4O[C@H]4C[C@](C)(N)[C@H](O)[C@H](C)O4)Oc4ccc(cc4Cl)[C@H]3O)c3ccc(O)c(c3)-c3c(O)cc(O)cc32)C(N)=O)cc1 [MCC_004821],Minimum Inhibitory Concentration (MIC) E. faecium ATCC51559,[1],xx (xx = 1-4)
same,Minimum Inhibitory Concentration (MIC) Staph. aureus ATCC43300,[2],xxxx (xxxx = 0.01-<0.1)
same,Minimum Inhibitory Concentration (MIC) S. pneumoniae ATCC 700677,[3],xxxx (xxxx = 0.01-<0.1)
CCCCCCCCCCCCCC(=O)N[C@@H](CCCCN)C(=O)N[C@@H](CCCCN)C(=O)N[C@@H](CCCCNC(=O)[C@H]1NC(=O)[C@H]2NC(=O)[C@H](NC(=O)[C@@H]3NC(=O)[C@H](CC(N)=O)NC(=O)[C@H](NC(=O)[C@@H](CC(C)C)NC)[C@H](O)c4ccc(c(Cl)c4)Oc4cc3cc(c4O[C@@H]3O[C@H](CO)[C@@H](O)[C@H](O)[C@H]3O[C@H]3C[C@](C)(N)[C@H](O)[C@H](C)O3)Oc3ccc(cc3Cl)[C@H]2O)c2ccc(O)c(c2)-c2c(O)cc(O)cc21)C(=O)NC [MCC_000224],Minimum Inhibitory Concentration (MIC) E. faecium ATCC51559,[1],xxx (xxx = 0.1-<1)
same,Minimum Inhibitory Concentration (MIC) Staph. aureus ATCC43300,[2],xxxxx (xxxxx = <0.01)
same,Minimum Inhibitory Concentration (MIC) S. pneumoniae ATCC 700677,[3],xxxxx (xxxxx = <0.01)
CNC(=O)[C@H](CCCCNC(=O)[C@H]1NC(=O)[C@H]2NC(=O)[C@H](NC(=O)[C@@H]3NC(=O)[C@H](CC(N)=O)NC(=O)[C@H](NC(=O)[C@@H](CC(C)C)NC)[C@H](O)c4ccc(c(Cl)c4)Oc4cc3cc(c4O[C@@H]3O[C@H](CO)[C@@H](O)[C@H](O)[C@H]3O[C@H]3C[C@](C)(N)[C@H](O)[C@H](C)O3)Oc3ccc(cc3Cl)[C@H]2O)c2ccc(O)c(c2)-c2c(O)cc(O)cc21)NC(=O)[C@@H](CCCCN)NC(=O)[C@@H](CCCCN)NC(=O)[C@H](CCCCNC(=O)c1ccc(Oc2ccccc2)cc1)NC(=O)c1ccc(Oc2ccccc2)cc1 [MCC_000766],Minimum Inhibitory Concentration (MIC) E. faecium ATCC51559,[1],xx (xx = 1-4)
same,Minimum Inhibitory Concentration (MIC) Staph. aureus ATCC43300,[2],xxxxx (xxxxx = <0.01)
same,Minimum Inhibitory Concentration (MIC) S. pneumoniae ATCC 700677,[3],xxxxx (xxxxx = <0.01)
CCCCCCCCCCCCCC(=O)NCCCC[C@H](NC(=O)CCCCCCCCCCCCC)C(=O)N[C@@H](CCCCN)C(=O)N[C@@H](CCCCN)C(=O)N[C@@H](CCCCNC(=O)[C@H]1NC(=O)[C@H]2NC(=O)[C@H](NC(=O)[C@@H]3NC(=O)[C@H](CC(N)=O)NC(=O)[C@H](NC(=O)[C@@H](CC(C)C)NC)[C@H](O)c4ccc(c(Cl)c4)Oc4cc3cc(c4O[C@@H]3O[C@H](CO)[C@@H](O)[C@H](O)[C@H]3O[C@H]3C[C@](C)(N)[C@H](O)[C@H](C)O3)Oc3ccc(cc3Cl)[C@H]2O)c2ccc(O)c(c2)-c2c(O)cc(O)cc21)C(=O)NC [MCC_000771],Minimum Inhibitory Concentration (MIC) E. faecium ATCC51559,[1],x (x = >4)
same,Minimum Inhibitory Concentration (MIC) Staph. aureus ATCC43300,[2],x (x = >4)
same,Minimum Inhibitory Concentration (MIC) S. pneumoniae ATCC 700677,[3],x (x = >4)
CCCCCCCCCC(=O)NC(CCCCN(C)C)C(=O)NCCCNC(=O)C1NC(=O)C2NC(=O)C(NC(=O)C3NC(=O)C(CC(N)=O)NC(=O)C(NC(=O)C(CC(C)C)NC)C(O)c4ccc(c(Cl)c4)Oc4cc3cc(c4OC3OC(CO)C(O)C(O)C3OC3CC(C)(N)C(O)C(C)O3)Oc3ccc(cc3Cl)C2O)c2ccc(O)c(c2)-c2c(O)cc(O)cc21 (stereo not drawn) [MCC_007339],Minimum Inhibitory Concentration (MIC) E. faecium ATCC51559,[1],xx (xx = 1-4)
same,Minimum Inhibitory Concentration (MIC) Staph. aureus ATCC43300,[2],xxxx (xxxx = 0.01-<0.1)
same,Minimum Inhibitory Concentration (MIC) S. pneumoniae ATCC 700677,[3],xxxx (xxxx = 0.01-<0.1)
CN[C@H](CC(C)C)C(=O)N[C@H]1C(=O)N[C@@H](CC(N)=O)C(=O)N[C@H]2C(=O)N[C@H]3C(=O)N[C@H](C(=O)N[C@H](C(=O)NCCCC[C@H](NC(=O)[C@H](CCCCN)NC(=O)[C@H](CCCCN)NC(=O)c4ccc(Cl)cc4)C(=O)O)c4cc(O)cc(O)c4-c4cc3ccc4O)[C@H](O)c3ccc(c(Cl)c3)Oc3cc2cc(c3O[C@@H]2O[C@H](CO)[C@@H](O)[C@H](O)[C@H]2O[C@H]2C[C@](C)(N)[C@H](O)[C@H](C)O2)Oc2ccc(cc2Cl)[C@H]1O [MCC_005505],Minimum Inhibitory Concentration (MIC) E. faecium ATCC51559,[1],x (x = >4)
same,Minimum Inhibitory Concentration (MIC) Staph. aureus ATCC43300,[2],xx (xx = 1-4)
same,Minimum Inhibitory Concentration (MIC) S. pneumoniae ATCC 700677,[3],xx (xx = 1-4)
CCCCCCCCCC(=O)NC(CCCNC(=N)N)C(=O)NC(CCCCN)C(=O)NCCCNC(=O)C1NC(=O)C2NC(=O)C(NC(=O)C3NC(=O)C(CC(N)=O)NC(=O)C(NC(=O)C(CC(C)C)NC)C(O)c4ccc(c(Cl)c4)Oc4cc3cc(c4OC3OC(CO)C(O)C(O)C3OC3CC(C)(N)C(O)C(C)O3)Oc3ccc(cc3Cl)C2O)c2ccc(O)c(c2)-c2c(O)cc(O)cc21 (stereo not drawn) [MCC_005487],Minimum Inhibitory Concentration (MIC) E. faecium ATCC51559,[1],xxx (xxx = 0.1-<1)
same,Minimum Inhibitory Concentration (MIC) Staph. aureus ATCC43300,[2],xxxxx (xxxxx = <0.01)
same,Minimum Inhibitory Concentration (MIC) S. pneumoniae ATCC 700677,[3],xxxx (xxxx = 0.01-<0.1)
